Experimental data: US11472803B2, “7-substituted 1-aryl-naphthyridine-3-carboxylic acid amides and use thereof” (Bayer Aktiengesellschaft, priority 2016, dated 2022)

Target: T1, human M2 receptor (Homo sapiens, UniProt P08172)
T1 construct: expressed in transfected cells; host or cells: CHO-DUKX (CHO-DUKX-M2-GIRK)
T1 sequence (P08172 1-466): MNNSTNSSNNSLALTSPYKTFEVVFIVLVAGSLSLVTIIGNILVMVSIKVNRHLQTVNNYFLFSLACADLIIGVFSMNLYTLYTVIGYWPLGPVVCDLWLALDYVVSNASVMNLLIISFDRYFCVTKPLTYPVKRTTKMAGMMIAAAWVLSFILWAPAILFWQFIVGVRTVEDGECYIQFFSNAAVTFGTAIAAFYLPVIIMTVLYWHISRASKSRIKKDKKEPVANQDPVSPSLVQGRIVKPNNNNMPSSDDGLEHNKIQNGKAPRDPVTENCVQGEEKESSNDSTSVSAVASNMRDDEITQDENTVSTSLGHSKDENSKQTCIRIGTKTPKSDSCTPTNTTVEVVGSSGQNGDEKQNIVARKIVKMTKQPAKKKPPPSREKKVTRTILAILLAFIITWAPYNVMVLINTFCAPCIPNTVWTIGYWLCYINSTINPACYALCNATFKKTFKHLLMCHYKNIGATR
Assay: Functional M2-GIRK1/4 activation test: allosteric potency (EC50) and efficiency at EC20 acetylcholine
Assay type: cell-based
Settings: CHO-DUKX-M2-GIRK cells; for EC50: voltage-sensitive dye, acetylcholine at EC20, in some cases mean of two or more determinations; for Emax: boosting of the acetylcholine effect at EC20 acetylcholine concentration
How it was run: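 Positive allosteric modulation measured as boosting of an EC20 acetylcholine response: hyperpolarization via GIRK1/4 in CHO-DUKX-M2-GIRK cells, monitored by membrane-potential dye fluorescence over 60 s after agonist, compound preadded. Hill-function fit gives EC50 and efficiency.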

Compound | EC50 [nM] | Emax [%]
O=C(NC(C(F)(F)F)C(F)(F)F)c1cn(-c2ncc(F)cc2F)c2nc(N3CCCC[C@@H]3CO)c(F)cc2c1=O [Example 190, 1-(3,5-Difluoropyridin-2-yl)-6-fluoro-N-(1,1,1,3,3,3-hexafluoropropan-2-yl)-7-[(2R)-2-(hydroxymethyl)piperidin-1-yl]-4-oxo-1,4-dihydro-1,8-naphthyridine-3-carboxamide] | 83.5 | 100
O=C(NC(C(F)(F)F)C(F)(F)F)c1cn(-c2c(F)cc(F)cc2F)c2nc(N3CCC(CO)(CO)CC3)c(F)cc2c1=O [Example 191, 7-[4,4-bis(hydroxymethyl)piperidin-1-yl]-6-fluoro-N-(1,1,1,3,3,3-hexafluoropropan-2-yl)-4-oxo-1-(2,4,6-trifluorophenyl)-1,4-dihydro-1,8-naphthyridine-3-carboxamide] | 48 | 100
O=C(NC(C(F)(F)F)C(F)(F)F)c1cn(-c2ncc(F)cc2F)c2nc(N3CCC[C@@H]3CO)c(F)cc2c1=O [Example 197, 1-(3,5-Difluoropyridin-2-yl)-6-fluoro-N-(1,1,1,3,3,3-hexafluoropropan-2-yl)-7-[(2R)-2-(hydroxymethyl)pyrrolidin-1-yl]-4-oxo-1,4-dihydro-1,8-naphthyridine-3-carboxamide] | 51 | 100
CC(NC(=O)c1cn(-c2c(F)cc(F)cc2F)c2nc(N3CCNCC(O)C3)c(F)cc2c1=O)C(F)(F)C(F)(F)F (centres unmarked) [Example 200, 6-Fluoro-7-[6-hydroxy-1,4-diazepan-1-yl]-4-oxo-N-[3,3,4,4,4-pentafluorobutan-2-yl]-1-(2,4,6-trifluorophenyl)-1,4-dihydro-1,8-naphthyridine-3-carboxamide] | 120 | 73
C[C@H](NC(=O)c1cn(-c2c(F)cc(F)cc2Cl)c2nc(N3C[C@@H](O)[C@H](O)C3)c(F)cc2c1=O)C(F)(F)F [Example 224, 1-(2-Chloro-4,6-difluorophenyl)-7-[(3R,4R)-3,4-dihydroxypyrrolidin-1-yl]-6-fluoro-4-oxo-N-[(2S)-1,1,1-trifluoropropan-2-yl]-1,4-dihydro-1,8-naphthyridine-3-carboxamide] | 10 | 96
C[C@@H](NC(=O)c1cn(-c2c(F)cc(F)cc2Cl)c2nc(N3C[C@@H](O)[C@H](O)C3)c(F)cc2c1=O)C(F)(F)F [Example 227, 1-(2-Chloro-4,6-difluorophenyl)-7-[(3R,4R)-3,4-dihydroxypyrrolidin-1-yl]-6-fluoro-4-oxo-N-[(2R)-1,1,1-trifluoropropan-2-yl]-1,4-dihydro-1,8-naphthyridine-3-carboxamide] | 11 | 94
O=C(N[C@@H](C1CC1)C(F)(F)F)c1cn(-c2c(F)cc(F)cc2F)c2nc(N3CCCC3)c(F)cc2c1=O [Example 231, N-[(1S)-1-cyclopropyl-2,2,2-trifluoroethyl]-6-fluoro-4-oxo-7-(pyrrolidin-1-yl)-1-(2,4,6-tri-fluorophenyl)-1,4-dihydro-1,8-naphthyridine-3-carboxamide] | 4.8 | 82

The next lines start with the values.

EC50 [nM] | Emax [%] | Compound
128 | 100 | CC(NC(=O)c1cn(-c2c(F)cc(F)cc2F)c2nc(N3CCCC(O)(CO)C3)c(F)cc2c1=O)C(F)(F)C(F)(F)F (centres unmarked) [Example 192, 6-Fluoro-7-[3-hydroxy-3-(hydroxymethyl)piperidin-1-yl]-4-oxo-N-[3,3,4,4,4-pentafluorobutan-2-yl]-1-(2,4,6-trifluorophenyl)-1,4-dihydro-1,8-naphthyridine-3-carboxamide]
32.5 | 100 | CC(C)(NC(=O)c1cn(-c2c(F)cc(F)cc2F)c2nc(N3CC[C@H](O)[C@@H]3CO)c(F)cc2c1=O)C(F)(F)C(F)(F)F [Example 193, 6-Fluoro-7-[(2S,3S)-3-hydroxy-2-(hydroxymethyl)pyrrolidin-1-yl]-4-oxo-N-(3,3,4,4,4-pentafluoro-2-methylbutan-2-yl)-1-(2,4,6-trifluorophenyl)-1,4-dihydro-1,8-naphthyridine-3-carboxamide]
58 | 100 | O=C(NC(C(F)(F)F)C(F)(F)F)c1cn(-c2ncc(F)cc2F)c2nc(N3CCC(CO)(CO)CC3)c(F)cc2c1=O [Example 195, 7-[4,4-bis(hydroxymethyl)piperidin-1-yl]-1-(3,5-difluoropyridin-2-yl)-6-fluoro-N-(1,1,1,3,3,3-hexafluoropropan-2-yl)-4-oxo-1,4-dihydro-1,8-naphthyridine-3-carboxamide]
63 | 100 | O=C(NC(C(F)(F)F)C(F)(F)F)c1cn(-c2c(F)cc(F)cc2F)c2nc(N3CC4(COC4)C3)c(F)cc2c1=O [Example 196, 6-Fluoro-N-(1,1,1,3,3,3-hexafluoropropan-2-yl)-7-(2-oxa-6-azaspiro[3.3]hept-6-yl)-4-oxo-1-(2,4,6-trifluorophenyl)-1,4-dihydro-1,8-naphthyridine-3-carboxamide]
33 | 100 | O=C(NC(C(F)(F)F)C(F)(F)F)c1cn(-c2ncc(F)cc2F)c2nc(N3CCC(O)(CO)CC3)c(F)cc2c1=O [Example 198, 1-(3,5-Difluoropyridin-2-yl)-6-fluoro-N-(1,1,1,3,3,3-hexafluoropropan-2-yl)-7-[4-hydroxy-4-(hydroxymethyl)piperidin-1-yl]-4-oxo-1,4-dihydro-1,8-naphthyridine-3-carboxamide]
14 | 100 | O=C(NC(C(F)(F)F)C(F)(F)F)c1cn(-c2c(F)cc(F)cc2F)c2nc(N3CCC[C@@H]3CO)c(F)cc2c1=O [Example 199, 6-Fluoro-N-(1,1,1,3,3,3-hexafluoropropan-2-yl)-7-[(2R)-2-(hydroxymethyl)pyrrolidin-1-yl]-4-oxo-1-(2,4,6-trifluorophenyl)-1,4-dihydro-1,8-naphthyridine-3-carboxamide]
16.5 | 91 | C[C@@H](NC(=O)c1cn(-c2c(F)cc(F)cc2F)c2nc(N3C[C@@H](O)[C@H](O)C3)c(F)cc2c1=O)C(F)(F)F [Example 219, 7-[(3R,4R)-3,4-dihydroxypyrrolidin-1-yl]-6-fluoro-4-oxo-1-(2,4,6-trifluorophenyl)-N-[(2R)-1,1,1-trifluoropropan-2-yl]-1,4-dihydro-1,8-naphthyridine-3-carboxamide]
80 | 85 | O=C(NCC(F)(F)F)c1cn(-c2c(F)cc(F)cc2F)c2nc(N3C[C@@H](O)[C@H](O)C3)c(F)cc2c1=O [Example 220, 7-[(3R,4R)-3,4-dihydroxypyrrolidin-1-yl]-6-fluoro-4-oxo-N-(2,2,2-trifluoroethyl)-1-(2,4,6-trifluorophenyl)-1,4-dihydro-1,8-naphthyridine-3-carboxamide]
31 | 85 | O=C(NCC(F)(F)F)c1cn(-c2c(F)cc(F)cc2Cl)c2nc(N3C[C@@H](O)[C@H](O)C3)c(F)cc2c1=O [Example 221, 1-(2-Chloro-4,6-difluorophenyl)-7-[(3R,4R)-3,4-dihydroxypyrrolidin-1-yl]-6-fluoro-4-oxo-N-(2,2,2-trifluoroethyl)-1,4-dihydro-1,8-naphthyridine-3-carboxamide]
